How the values were obtained:
[1] = test system: Hepatocyte growth factor receptor (Homo sapiens), P08581 [Y1235D]; conditions: Compound concentration 1000.0 nM
[2] = biological target: Phosphorylase b kinase gamma catalytic chain, skeletal muscle/heart isoform (Homo sapiens) (UniProt Q16816); conditions: Compound concentration 1000.0 nM
[3] = biological target: Ephrin type-A receptor 7 (Homo sapiens) (UniProt Q15375); conditions: Compound concentration 1000.0 nM
[4] = biological target: Sodium-dependent serotonin transporter (Homo sapiens) (UniProt P31645); conditions: Compound concentration 10.0 uM
[5] = biological target: Phosphatidylinositol 4-phosphate 5-kinase type-1 alpha (Homo sapiens) (UniProt Q99755); conditions: Compound concentration 1000.0 nM
[6] = test system: Epidermal growth factor receptor (Homo sapiens), P00533 [UNDEFINED MUTATION]; conditions: Compound concentration 1000.0 nM
[7] = biological target: Tyrosine-protein kinase Lck (Homo sapiens) (UniProt P06239); conditions: Compound concentration 1000.0 nM
[8] = biological target: Myosin-IIIb (Homo sapiens) (UniProt Q8WXR4); conditions: Compound concentration 1000.0 nM
[9] = biological target: Cyclin-dependent kinase 5 (Homo sapiens) (UniProt Q00535); conditions: Compound concentration 1000.0 nM
[10] = biological target: Phosphorylase b kinase regulatory subunit alpha, liver isoform (Homo sapiens) (UniProt P46019); conditions: Compound concentration 1000.0 nM
[11] = biological target: Sigma non-opioid intracellular receptor 1 (Homo sapiens, UniProt Q99720); test: GPCRScan assay: inhibition of Sigma 1; set-up: radioligand conc. used [nm] 4.0 – 5.0, parental cells HEKT
[12] = test system: eIF-2-alpha kinase GCN2 (Homo sapiens), Q9P2K8 [S808G]; conditions: Compound concentration 1000.0 nM
[13] = biological target: Mitogen-activated protein kinase 12 (Homo sapiens) (UniProt P53778); conditions: Compound concentration 1000.0 nM
[14] = biological target: Tyrosine-protein kinase ABL2 (Homo sapiens) (UniProt P42684); conditions: Compound concentration 1000.0 nM
[15] = biological target: Myosin light chain kinase 2, skeletal/cardiac muscle (Homo sapiens) (UniProt Q9H1R3); conditions: Compound concentration 1000.0 nM
[16] = biological target: T1, Muscarinic acetylcholine receptor M1 (Homo sapiens) (UniProt P11229); conditions: Compound concentration 10.0 uM
T1 sequence (whole entry): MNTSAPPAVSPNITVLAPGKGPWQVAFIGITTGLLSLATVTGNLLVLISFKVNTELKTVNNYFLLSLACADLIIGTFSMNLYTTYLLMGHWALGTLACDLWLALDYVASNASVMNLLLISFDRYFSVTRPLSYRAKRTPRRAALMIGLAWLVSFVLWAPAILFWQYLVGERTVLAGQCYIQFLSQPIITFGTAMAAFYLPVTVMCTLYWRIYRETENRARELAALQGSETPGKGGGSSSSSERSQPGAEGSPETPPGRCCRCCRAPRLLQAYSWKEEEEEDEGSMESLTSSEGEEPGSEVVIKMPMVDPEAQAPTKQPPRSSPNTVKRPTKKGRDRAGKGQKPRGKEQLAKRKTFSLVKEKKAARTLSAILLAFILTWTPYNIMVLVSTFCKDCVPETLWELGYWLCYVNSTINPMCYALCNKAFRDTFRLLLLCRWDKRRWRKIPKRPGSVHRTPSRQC

[17] = biological target: Wee1-like protein kinase 2 (Homo sapiens) (UniProt P0C1S8); conditions: Compound concentration 1000.0 nM
[18] = biological target: 5'-AMP-activated protein kinase catalytic subunit alpha-2 (Homo sapiens) (UniProt P54646); conditions: Compound concentration 1000.0 nM
[19] = test system: Hepatocyte growth factor receptor (Homo sapiens), P08581 [M1250T]; conditions: Compound concentration 1000.0 nM
[20] = biological target: Serine/threonine-protein kinase 38-like (Homo sapiens) (UniProt Q9Y2H1); conditions: Compound concentration 1000.0 nM
[21] = biological target: Rho-associated protein kinase 2 (Homo sapiens) (UniProt O75116); conditions: Compound concentration 1000.0 nM
[22] = biological target: Serine/threonine-protein kinase PRP4 homolog (Homo sapiens) (UniProt Q13523); conditions: Compound concentration 1000.0 nM
[23] = biological target: Mitogen-activated protein kinase kinase kinase 3 (Homo sapiens) (UniProt Q99759); conditions: Compound concentration 1000.0 nM
[24] = biological target: 5-hydroxytryptamine receptor 1E (Homo sapiens) (UniProt P28566); conditions: Compound concentration 10.0 uM
[25] = biological target: Muscarinic acetylcholine receptor M5 (Homo sapiens) (UniProt P08912); conditions: Compound concentration 10.0 uM
[26] = biological target: Dual specificity protein kinase TTK (Homo sapiens) (UniProt P33981); conditions: Compound concentration 1000.0 nM
[27] = biological target: Tyrosine-protein kinase JAK1 (Homo sapiens) (UniProt P23458); conditions: Compound concentration 1000.0 nM
[28] = biological target: Ephrin type-B receptor 1 (Homo sapiens) (UniProt P54762); conditions: Compound concentration 1000.0 nM
[29] = biological target: Ribosomal protein S6 kinase alpha-6 (Homo sapiens) (UniProt Q9UK32); conditions: Compound concentration 1000.0 nM
[30] = biological target: Calcium/calmodulin-dependent protein kinase type 1B (Homo sapiens) (UniProt Q6P2M8); conditions: Compound concentration 1000.0 nM
[31] = biological target: Mitogen-activated protein kinase kinase kinase kinase 2 (Homo sapiens) (UniProt Q12851); conditions: Compound concentration 1000.0 nM
[32] = test system: Epidermal growth factor receptor (Homo sapiens), P00533 [L858R]; conditions: Compound concentration 1000.0 nM
[33] = biological target: Ribosomal protein S6 kinase alpha-4 (Homo sapiens) (UniProt O75676); conditions: Compound concentration 1000.0 nM
[34] = biological target: Ephrin type-A receptor 4 (Homo sapiens) (UniProt P54764); conditions: Compound concentration 1000.0 nM
[35] = biological target: GABA-A receptor; anion channel (Rattus norvegicus) (UniProt O09028+P15431+P18506+P18508+P19969+P20236+P23574+P23576+P28471+P28473+P30191+P62813+P63079+P63138+Q91ZM7+Q9ES14); conditions: Compound concentration 10.0 uM
[36] = biological target: Interleukin-1 receptor-associated kinase 1 (Homo sapiens) (UniProt P51617); conditions: Compound concentration 1000.0 nM
[37] = biological target: Serine/threonine-protein kinase RIO2 (Homo sapiens) (UniProt Q9BVS4); conditions: Compound concentration 1000.0 nM
[38] = test system: Tyrosine-protein kinase ABL1 (Homo sapiens), P00519 [M351T]; conditions: Compound concentration 1000.0 nM

Chain of Ephrin type-B receptor 1 (Homo sapiens) (P54762 whole entry): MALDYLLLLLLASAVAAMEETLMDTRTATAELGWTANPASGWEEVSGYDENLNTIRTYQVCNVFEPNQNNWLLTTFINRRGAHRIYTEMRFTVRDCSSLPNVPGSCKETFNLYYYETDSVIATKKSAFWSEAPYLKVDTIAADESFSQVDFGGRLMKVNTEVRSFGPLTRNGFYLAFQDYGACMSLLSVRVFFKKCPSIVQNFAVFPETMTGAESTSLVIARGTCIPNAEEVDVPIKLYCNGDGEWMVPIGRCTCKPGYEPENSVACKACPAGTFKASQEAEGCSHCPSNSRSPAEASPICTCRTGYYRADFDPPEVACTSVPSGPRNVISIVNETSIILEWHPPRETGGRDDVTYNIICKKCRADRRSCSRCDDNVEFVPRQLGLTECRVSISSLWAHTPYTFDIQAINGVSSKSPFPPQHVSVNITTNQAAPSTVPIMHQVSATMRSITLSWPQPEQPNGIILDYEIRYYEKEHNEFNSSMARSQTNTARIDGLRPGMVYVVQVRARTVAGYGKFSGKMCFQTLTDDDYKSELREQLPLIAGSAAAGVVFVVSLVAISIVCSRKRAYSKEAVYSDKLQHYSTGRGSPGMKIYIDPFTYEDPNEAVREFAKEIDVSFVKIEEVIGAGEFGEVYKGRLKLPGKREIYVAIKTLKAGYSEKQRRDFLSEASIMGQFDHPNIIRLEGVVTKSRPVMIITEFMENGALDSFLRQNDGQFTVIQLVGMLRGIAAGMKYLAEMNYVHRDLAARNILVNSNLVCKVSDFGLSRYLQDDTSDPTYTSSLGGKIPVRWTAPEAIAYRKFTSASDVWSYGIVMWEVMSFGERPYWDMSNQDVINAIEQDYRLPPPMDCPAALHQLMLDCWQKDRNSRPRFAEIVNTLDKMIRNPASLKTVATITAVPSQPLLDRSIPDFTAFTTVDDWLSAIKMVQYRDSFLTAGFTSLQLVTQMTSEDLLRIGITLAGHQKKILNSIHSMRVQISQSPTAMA
Chain of Phosphorylase b kinase gamma catalytic chain, skeletal muscle/heart isoform (Homo sapiens) (Q16816 whole entry, looked up, canonical isoform): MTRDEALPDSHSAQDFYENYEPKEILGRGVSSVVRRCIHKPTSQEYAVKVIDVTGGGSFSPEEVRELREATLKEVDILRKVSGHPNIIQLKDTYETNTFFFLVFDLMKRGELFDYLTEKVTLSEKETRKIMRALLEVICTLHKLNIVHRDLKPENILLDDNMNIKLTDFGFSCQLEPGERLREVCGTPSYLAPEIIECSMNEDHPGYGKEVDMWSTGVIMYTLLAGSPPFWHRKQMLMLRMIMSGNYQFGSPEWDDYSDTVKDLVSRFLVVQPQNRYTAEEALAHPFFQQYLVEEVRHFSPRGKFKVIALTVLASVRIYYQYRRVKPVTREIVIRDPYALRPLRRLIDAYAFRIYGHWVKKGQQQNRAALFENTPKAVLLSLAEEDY
Chain of eIF-2-alpha kinase GCN2 (Homo sapiens), Q9P2K8 [S808G] (Q9P2K8 whole entry S808G): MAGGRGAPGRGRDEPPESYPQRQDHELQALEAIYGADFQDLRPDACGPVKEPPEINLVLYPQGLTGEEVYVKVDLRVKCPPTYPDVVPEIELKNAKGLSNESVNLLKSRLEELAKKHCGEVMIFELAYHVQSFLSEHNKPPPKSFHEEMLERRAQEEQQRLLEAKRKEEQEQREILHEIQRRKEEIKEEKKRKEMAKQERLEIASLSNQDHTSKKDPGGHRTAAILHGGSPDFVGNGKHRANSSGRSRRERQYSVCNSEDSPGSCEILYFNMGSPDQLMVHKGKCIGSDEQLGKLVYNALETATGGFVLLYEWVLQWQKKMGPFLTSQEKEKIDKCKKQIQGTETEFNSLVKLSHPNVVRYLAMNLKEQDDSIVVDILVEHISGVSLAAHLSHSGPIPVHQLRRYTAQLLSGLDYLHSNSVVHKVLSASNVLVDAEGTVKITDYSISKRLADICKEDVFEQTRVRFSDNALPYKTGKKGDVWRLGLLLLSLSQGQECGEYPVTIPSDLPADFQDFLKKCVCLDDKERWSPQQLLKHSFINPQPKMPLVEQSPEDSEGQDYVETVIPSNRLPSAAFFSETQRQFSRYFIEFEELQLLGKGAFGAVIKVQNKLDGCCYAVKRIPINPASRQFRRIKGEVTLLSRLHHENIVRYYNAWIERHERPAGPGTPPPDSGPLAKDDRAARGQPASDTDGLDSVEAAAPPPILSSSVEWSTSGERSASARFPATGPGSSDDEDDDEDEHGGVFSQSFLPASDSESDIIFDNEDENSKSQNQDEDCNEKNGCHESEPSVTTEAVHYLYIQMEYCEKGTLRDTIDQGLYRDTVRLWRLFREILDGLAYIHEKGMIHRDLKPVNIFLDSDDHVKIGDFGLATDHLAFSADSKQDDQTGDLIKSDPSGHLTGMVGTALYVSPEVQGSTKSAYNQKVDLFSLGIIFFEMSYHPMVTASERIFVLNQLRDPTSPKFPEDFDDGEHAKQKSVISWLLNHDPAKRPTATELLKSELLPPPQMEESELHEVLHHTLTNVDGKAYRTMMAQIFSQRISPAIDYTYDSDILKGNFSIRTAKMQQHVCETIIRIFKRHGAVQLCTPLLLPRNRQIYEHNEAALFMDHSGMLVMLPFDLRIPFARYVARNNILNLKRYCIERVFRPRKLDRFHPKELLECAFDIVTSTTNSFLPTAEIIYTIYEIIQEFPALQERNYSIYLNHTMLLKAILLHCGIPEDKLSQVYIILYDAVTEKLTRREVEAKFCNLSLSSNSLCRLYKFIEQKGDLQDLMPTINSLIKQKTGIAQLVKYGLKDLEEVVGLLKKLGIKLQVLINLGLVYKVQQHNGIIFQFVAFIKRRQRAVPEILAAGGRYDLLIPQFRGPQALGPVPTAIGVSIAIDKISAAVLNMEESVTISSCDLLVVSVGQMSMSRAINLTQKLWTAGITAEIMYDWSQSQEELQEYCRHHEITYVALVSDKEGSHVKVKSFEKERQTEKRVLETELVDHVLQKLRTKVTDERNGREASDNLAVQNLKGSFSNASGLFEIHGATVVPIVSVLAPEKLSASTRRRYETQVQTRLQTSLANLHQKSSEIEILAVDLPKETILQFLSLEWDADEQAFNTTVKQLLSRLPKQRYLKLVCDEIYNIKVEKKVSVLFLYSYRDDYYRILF
Chain of Tyrosine-protein kinase Lck (Homo sapiens) (P06239 2-509 limits assumed): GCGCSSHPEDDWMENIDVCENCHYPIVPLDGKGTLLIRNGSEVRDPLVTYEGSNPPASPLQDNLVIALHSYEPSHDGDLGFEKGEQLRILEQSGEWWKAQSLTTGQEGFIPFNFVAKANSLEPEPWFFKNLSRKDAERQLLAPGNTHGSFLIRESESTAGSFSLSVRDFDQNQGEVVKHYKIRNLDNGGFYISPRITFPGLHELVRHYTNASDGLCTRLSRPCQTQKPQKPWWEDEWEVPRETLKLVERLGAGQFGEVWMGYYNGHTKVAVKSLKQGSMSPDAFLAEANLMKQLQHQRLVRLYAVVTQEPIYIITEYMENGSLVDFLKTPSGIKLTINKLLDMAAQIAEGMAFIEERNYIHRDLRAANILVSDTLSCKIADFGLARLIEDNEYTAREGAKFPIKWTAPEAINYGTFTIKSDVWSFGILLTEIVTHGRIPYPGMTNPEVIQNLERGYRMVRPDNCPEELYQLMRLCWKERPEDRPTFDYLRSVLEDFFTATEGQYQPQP
Chain of Rho-associated protein kinase 2 (Homo sapiens) (O75116 whole entry, looked up): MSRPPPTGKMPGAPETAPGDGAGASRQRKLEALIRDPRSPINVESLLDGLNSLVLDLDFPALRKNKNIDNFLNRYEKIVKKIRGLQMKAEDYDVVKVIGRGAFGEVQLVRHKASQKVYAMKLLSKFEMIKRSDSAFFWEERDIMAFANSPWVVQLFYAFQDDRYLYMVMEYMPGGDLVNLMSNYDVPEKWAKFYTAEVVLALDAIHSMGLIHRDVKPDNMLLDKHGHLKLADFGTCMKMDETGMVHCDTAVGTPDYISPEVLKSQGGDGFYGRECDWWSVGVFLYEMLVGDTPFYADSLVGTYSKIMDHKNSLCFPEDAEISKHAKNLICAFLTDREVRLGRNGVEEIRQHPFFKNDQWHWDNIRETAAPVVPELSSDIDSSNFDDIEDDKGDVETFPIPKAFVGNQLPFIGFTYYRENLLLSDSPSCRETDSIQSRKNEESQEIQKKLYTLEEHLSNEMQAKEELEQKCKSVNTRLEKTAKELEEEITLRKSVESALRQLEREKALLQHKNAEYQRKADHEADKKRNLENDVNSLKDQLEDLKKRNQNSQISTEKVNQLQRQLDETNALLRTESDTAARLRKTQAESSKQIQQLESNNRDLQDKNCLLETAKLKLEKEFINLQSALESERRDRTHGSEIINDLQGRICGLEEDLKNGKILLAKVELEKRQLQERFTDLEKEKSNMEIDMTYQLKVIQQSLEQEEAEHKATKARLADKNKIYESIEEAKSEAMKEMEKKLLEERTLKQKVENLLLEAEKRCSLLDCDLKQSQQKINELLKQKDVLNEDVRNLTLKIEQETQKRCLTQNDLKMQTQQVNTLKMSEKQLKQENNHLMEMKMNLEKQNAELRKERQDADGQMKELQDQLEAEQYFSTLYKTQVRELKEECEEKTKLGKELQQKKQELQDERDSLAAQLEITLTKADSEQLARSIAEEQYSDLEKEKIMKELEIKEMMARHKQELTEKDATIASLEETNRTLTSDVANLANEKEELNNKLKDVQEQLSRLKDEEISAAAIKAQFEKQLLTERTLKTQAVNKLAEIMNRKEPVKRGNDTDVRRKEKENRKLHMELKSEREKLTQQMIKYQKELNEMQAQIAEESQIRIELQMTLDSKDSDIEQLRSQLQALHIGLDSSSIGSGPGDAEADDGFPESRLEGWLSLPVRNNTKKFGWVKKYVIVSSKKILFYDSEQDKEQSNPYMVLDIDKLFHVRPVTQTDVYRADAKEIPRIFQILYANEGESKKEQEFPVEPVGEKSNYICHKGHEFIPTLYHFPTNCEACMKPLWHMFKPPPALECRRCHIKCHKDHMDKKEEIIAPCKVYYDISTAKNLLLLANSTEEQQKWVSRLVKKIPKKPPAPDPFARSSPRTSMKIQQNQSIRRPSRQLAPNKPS

| Structure (SMILES) | residual activity [1] [%] | residual activity [2] [%] | residual activity [3] [%] | inhibition [4] [%] | residual activity [5] [%] | residual activity [6] [%] | residual activity [7] [%] | residual activity [8] [%] | residual activity [9] [%] | residual activity [10] [%] | Ki [11] [µM] | residual activity [12] [%] | residual activity [13] [%] | residual activity [14] [%] | residual activity [15] [%] | inhibition [16] [%] | residual activity [17] [%] | residual activity [18] [%] | residual activity [19] [%] | residual activity [20] [%] | also measured |
| --- | --- | --- | --- | --- | --- | --- | --- | --- | --- | --- | --- | --- | --- | --- | --- | --- | --- | --- | --- | --- | --- |
| O=C(Nc1ccc(Oc2ccc(F)cc2)cc1)N1CCc2ncccc2[C@H]1c1ccc(F)cc1 [BAY-897] | 86 | 100 | 90 | 21.1 | 95 | 100 | 94 | 83 | 100 | 100 | 2.4 | 100 | 94 | 88 | 100 | -2.98 | 100 | 51 | 97 | 76 | residual activity [21]: 93%; residual activity [22]: 100%; residual activity [23]: 87%; inhibition [24]: 1.61%; inhibition [25]: -1.7%; residual activity [26]: 94%; residual activity [27]: 94%; residual activity [28]: 100%; residual activity [29]: 95%; residual activity [30]: 96%; residual activity [31]: 95%; residual activity [32]: 96%; residual activity [33]: 73%; residual activity [34]: 100%; inhibition [35]: 22.4%; residual activity [36]: 88%; residual activity [37]: 94%; residual activity [38]: 51% |
| O=C(Nc1cnc(Oc2ccc(F)cc2)nc1)N1CCc2ncccc2[C@@H]1c1ccc(F)cc1 [BAY-899] | 93 | 100 | 88 | 25.5 | 100 | 100 | 83 | 100 | 100 | 96 | 1.43 | 85 | 96 | 78 | 90 | 7.56 | 95 | 79 | 100 | 75 | residual activity [21]: 100%; residual activity [22]: 90%; residual activity [23]: 97%; inhibition [24]: -8.08%; inhibition [25]: 12%; residual activity [26]: 86%; residual activity [27]: 86%; residual activity [28]: 83%; residual activity [29]: 82%; residual activity [30]: 100%; residual activity [31]: 100%; residual activity [32]: 92%; residual activity [33]: 89%; residual activity [34]: 88%; inhibition [35]: 26%; residual activity [36]: 88%; residual activity [37]: 96%; residual activity [38]: 57% |
